Numbered stars: 1 amine (or outer) side, 2 acyl side, 3 side chain; on linkers, the order of the positions; unused ones are H or OH. Bridge positions count the residues as written; N and C are the ends. Square brackets hold non-standard residues; d marks the D form. Peptide text beside a SMILES is read from it. I, II: the chains in the order shown. Actinocin(9to1) = Cc1c2oc3c(C)ccc(C(=O)[*:1])c3nc-2c(C(=O)[*:2])c(N)c1=O; NMeV = CN[C@H](C(=O)O)C(C)C; Sar = CNCC(=O)O
Columns and labels:
Assay type in all cases: cell-based, Spodoptera frugiperda
[1] = tested on: Sf9P35AcV5-3 cells; assay: DNA laddering on agarose gel after actinomycin D exposure; settings: 0.1 μg/ml actinomycin D for one hour, 24 hours in fresh TNMFH
Protocol: (§1) To further examine resistance to apoptosis by P35 expressing cells, Sf9, Sf9^P35AcV5−1 and Sf9^P35AcV5−3 cells were plated at 2×10^6 cells/well in 6-well plates, then exposed to actinomycin D (0.1 μg/ml) for one hour, and incubated in fresh TNMFH medium at 27° C. for 24 hours. Cells were harvested and washed twice with PBS. Lysates were prepared by incubating cells in 200 μl lysis buffer (10 mM Tris pH 7.5, 25 mM EDTA, 0.2% Triton X-100) for one hour at room temperature. The lysate was extracted once with phenol, once with phenol:chloroform (1:1), twice with chloroform, and then precipitated in two volumes of ethanol. Cellular DNA was resuspended in 30 μl water containing RNAse A (50 μg/ml). 10 μl of DNA from each cell treatment was electrophoresed on a 1.2% agarose gel in TBE buffer (not shown).

[2] = tested on: Sf9P35AcV5-1 cells; assay: as above; settings: 0.1 μg/ml actinomycin D for one hour, 24 hours in fresh TNMFH
Protocol: as §1

[3] = tested on: Sf9 cells; assay: as above; settings: 0.1 μg/ml actinomycin D for one hour, 24 hours in fresh TNMFH
Protocol: as §1

[4] = tested on: Sf9P35AcV5-3 cells; assay: Resistance to induction of apoptosis by actinomycin D: cell survival
Protocol: (§2) The cells were examined for resistance to induction of apoptosis by actinomycin D, as well as survival under conditions of nutrient deprivation. Sf9 cells or stably transfected lines Sf9^P35AcV5−1 and Sf9^P35AcV5−3 were incubated in medium containing 0.1 μg/ml actinomycin D for 1 hour, then placed in TNMFH medium.
(§3) Increasing doses of actinomycin D were tested to further examine the degree of resistance to this inducer of apoptosis. Sf9 or stably transfected cells expressing P35 were incubated in a range of concentrations of actinomycin D (0.01 to 0.5 μg/ml) for one hour, then placed in TNMFH and scored for cell survival after 1-4 days (Table 2).

[5] = tested on: Sf9P35AcV5-1 cells; assay: as above
Protocol: as §2, §3

[6] = 0.01 μg/ml actinomycin D for one hour, Day 1
[7] = 0.01 μg/ml actinomycin D for one hour, Day 2
[8] = 0.01 μg/ml actinomycin D for one hour, Day 3
[9] = 0.01 μg/ml actinomycin D for one hour, Day 4
[10] = 0.025 μg/ml actinomycin D for one hour, Day 1
[11] = 0.025 μg/ml actinomycin D for one hour, Day 2
[12] = 0.025 μg/ml actinomycin D for one hour, Day 3
[13] = 0.025 μg/ml actinomycin D for one hour, Day 4
[14] = 0.05 μg/ml actinomycin D for one hour, Day 1
[15] = 0.05 μg/ml actinomycin D for one hour, Day 2
[16] = 0.05 μg/ml actinomycin D for one hour, Day 3
[17] = 0.05 μg/ml actinomycin D for one hour, Day 4
[18] = 0.075 μg/ml actinomycin D for one hour, Day 1
[19] = 0.075 μg/ml actinomycin D for one hour, Day 2

For `Cc1c2oc3c(C)ccc(C(=O)N[C@@H]4C(=O)N[C@H](C(C)C)C(=O)N5CCC[C@H]5C(=O)N(C)CC(=O)N(C)[C@@H](C(C)C)C(=O)O[C@@H]4C)c3nc-2c(C(=O)N[C@@H]2C(=O)N[C@H](C(C)C)C(=O)N3CCC[C@H]3C(=O)N(C)CC(=O)N(C)[C@@H](C(C)C)C(=O)O[C@@H]2C)c(N)c1=O` [Actinomycin D, actinomycin D] (I: T[dV]P[Sar][NMeV] / II: T[dV]P[Sar][NMeV]; ester I:1-I:C, II:1-II:C; linker I:N-II:N via Actinocin(9to1)), the “DNA laddering / degradation on ethidium bromide stained gel” value (“DNA laddering / degradation” below) [1] was “little or no laddering or degradation”, the “DNA laddering / degradation” value [2] was “little or no laddering or degradation” and the “DNA laddering / degradation” value [3] was “DNA laddering effect typical of apoptosis”. For the same molecule, the “Sf9P35AcV5-3 Cell Survival (Percentage)” value [4, 6] was 100 Percentage, the “Sf9P35AcV5-3 Cell Survival (Percentage)” value [4, 7] was 100 Percentage and the “Sf9P35AcV5-3 Cell Survival (Percentage)” value [4, 8] was 100 Percentage. The “Sf9P35AcV5-3 Cell Survival (Percentage)” value [4, 9] was 100 Percentage, the “Sf9P35AcV5-3 Cell Survival (Percentage)” value [4, 10] was 100 Percentage and the “Sf9P35AcV5-3 Cell Survival (Percentage)” value [4, 11] was 100 Percentage. The “Sf9P35AcV5-3 Cell Survival (Percentage)” value [4, 12] was 100 Percentage, the “Sf9P35AcV5-3 Cell Survival (Percentage)” value [4, 13] was 100 Percentage and the “Sf9P35AcV5-3 Cell Survival (Percentage)” value [4, 14] was 100 Percentage. For the same molecule, the “Sf9P35AcV5-3 Cell Survival (Percentage)” value [4, 15] was 100 Percentage, the “Sf9P35AcV5-3 Cell Survival (Percentage)” value [4, 16] was 100 Percentage and the “Sf9P35AcV5-3 Cell Survival (Percentage)” value [4, 17] was 100 Percentage. The “Sf9P35AcV5-3 Cell Survival (Percentage)” value [4, 18] was 100 Percentage, the “Sf9P35AcV5-3 Cell Survival (Percentage)” value [4, 19] was 100 Percentage and the “Sf9P35AcV5-3 Cell Survival (Percentage)” value ([4]; 0.075 μg/ml actinomycin D for one hour, Day 3) was 100 Percentage. For the same molecule, the “Sf9P35AcV5-3 Cell Survival (Percentage)” value ([4]; 0.075 μg/ml actinomycin D for one hour, Day 4) was 100 Percentage, the “survival of Sf9P35AcV5-3 cells” value ([4]; 0.1 μg/ml actinomycin D for 1 hour, then TNMFH medium, after three days) was “survived” and the “Sf9P35AcV5-3 Cell Survival (Percentage)” value ([4]; 0.1 μg/ml actinomycin D for one hour, Day 1) was 100 Percentage. The “Sf9P35AcV5-3 Cell Survival (Percentage)” value ([4]; 0.1 μg/ml actinomycin D for one hour, Day 2) was 100 Percentage, the “Sf9P35AcV5-3 Cell Survival (Percentage)” value ([4]; 0.1 μg/ml actinomycin D for one hour, Day 3) was 100 Percentage and the “Sf9P35AcV5-3 Cell Survival (Percentage)” value ([4]; 0.1 μg/ml actinomycin D for one hour, Day 4) was 100 Percentage. The “survival of stably transfected line” value ([4]; 0.25 μg/ml actinomycin D) was 100%, the “Sf9P35AcV5-3 Cell Survival (Percentage)” value ([4]; 0.25 μg/ml actinomycin D for one hour, Day 1) was 100 Percentage and the “Sf9P35AcV5-3 Cell Survival (Percentage)” value ([4]; 0.25 μg/ml actinomycin D for one hour, Day 2) was 100 Percentage. The “Sf9P35AcV5-3 Cell Survival (Percentage)” value ([4]; 0.25 μg/ml actinomycin D for one hour, Day 3) was 100 Percentage, the “Sf9P35AcV5-3 Cell Survival (Percentage)” value ([4]; 0.25 μg/ml actinomycin D for one hour, Day 4) was 100 Percentage and the “survival of stably transfected line” value ([4]; 0.5 μg/ml actinomycin D) was at most 10%. The “Sf9P35AcV5-3 Cell Survival (Percentage)” value ([4]; 0.5 μg/ml actinomycin D for one hour, Day 1) was 9.2 Percentage, the “Sf9P35AcV5-3 Cell Survival (Percentage)” value ([4]; 0.5 μg/ml actinomycin D for one hour, Day 2) was 8.5 Percentage and the “Sf9P35AcV5-3 Cell Survival (Percentage)” value ([4]; 0.5 μg/ml actinomycin D for one hour, Day 3) was 1.5 Percentage. The “Sf9P35AcV5-3 Cell Survival (Percentage)” value ([4]; 0.5 μg/ml actinomycin D for one hour, Day 4) was 0 Percentage, the “resistance to actinomycin D as an inducer of apoptosis” value ([4]; relative to Sf9 cells) was at least 2 fold and the “Sf9P35AcV5-1 Cell Survival (Percentage)” value [5, 6] was 100 Percentage. For the same molecule, the “Sf9P35AcV5-1 Cell Survival (Percentage)” value [5, 7] was 100 Percentage, the “Sf9P35AcV5-1 Cell Survival (Percentage)” value [5, 8] was 100 Percentage and the “Sf9P35AcV5-1 Cell Survival (Percentage)” value [5, 9] was 100 Percentage. The “Sf9P35AcV5-1 Cell Survival (Percentage)” value [5, 10] was 100 Percentage, the “Sf9P35AcV5-1 Cell Survival (Percentage)” value [5, 11] was 100 Percentage and the “Sf9P35AcV5-1 Cell Survival (Percentage)” value [5, 12] was 100 Percentage. For the same molecule, the “Sf9P35AcV5-1 Cell Survival (Percentage)” value [5, 13] was 100 Percentage, the “Sf9P35AcV5-1 Cell Survival (Percentage)” value [5, 14] was 100 Percentage and the “Sf9P35AcV5-1 Cell Survival (Percentage)” value [5, 15] was 100 Percentage. The “Sf9P35AcV5-1 Cell Survival (Percentage)” value [5, 16] was 100 Percentage, the “Sf9P35AcV5-1 Cell Survival (Percentage)” value [5, 17] was 100 Percentage and the “Sf9P35AcV5-1 Cell Survival (Percentage)” value [5, 18] was 100 Percentage. The “Sf9P35AcV5-1 Cell Survival (Percentage)” value [5, 19] was 100 Percentage.

— patent US7405038B1, “Stable cell lines resistant to apoptosis and nutrient stress and methods of making same” (Boyce Thompson Institute for Plant Research, Inc., priority 2000, dated 2008)
